Measured values published in PMC3591530 (Molecular Imaging and Biology, 2012).
Where a SMILES comes first, the peptide text is derived from it. [ ]: non-standard residue; d: D form. Tyr(3-I) = N[C@@H](Cc1ccc(O)c(I)c1)C(=O)O

Key:
BxPC3 cells = assay type: binding, human; conditions: 24 h
Procedure: (§1) Three hundred thousand BxPC3, MCF7, PDGFRβ-tr-HEK, CaIX-tr-HEK, or HEK293wt cells were cultivated in six-well plates at 37°C for 24 h. Cells were blocked with RPMI 1640 containing 1% milk powder and the medium was replaced with 1 ml fresh medium (without FCS) containing 0.5–1.5 × 10^6 cpm ^125I-labeled peptide. After incubation at 37°C for various time periods (10 min to 6 h), the medium was removed and the cells were washed with PBS. Subsequently, cell lysis was performed with 0.5 ml NaOH 0.3 M and the bound radioactivity was measured with a γ-counter and calculated as percentage applied dose per 10^6 cells. Specific binding was determined through co-incubation of the radioligand with the unlabeled PDGFR-P1 peptide at various concentrations (10^−4 to 10^−10 M). A dodecapeptide identified with phage display by panning against the extracellular domain of human carbonic anhydrase IX (CaIX-P1) as well as a derivative of a dodecapeptide identified with phage display on prostate carcinoma cells (DUP-1–9) were used as negative control competitors.

[1] = target: T1, extracellular domain of human PDGFRβ (Homo sapiens, UniProt P09619); assay type: binding; conditions: pH 7.4
T1 construct: The extracellular domain of PDGFRβ was recombinantly synthesized using the Flp-In system; Fc (Fcγ from pSEC-EGP-2-Fcγ vector) (C); made in house; host or cells: Flp-In-293 human embryonic kidney cells
T1 sequence (P09619 33-532 limits assumed): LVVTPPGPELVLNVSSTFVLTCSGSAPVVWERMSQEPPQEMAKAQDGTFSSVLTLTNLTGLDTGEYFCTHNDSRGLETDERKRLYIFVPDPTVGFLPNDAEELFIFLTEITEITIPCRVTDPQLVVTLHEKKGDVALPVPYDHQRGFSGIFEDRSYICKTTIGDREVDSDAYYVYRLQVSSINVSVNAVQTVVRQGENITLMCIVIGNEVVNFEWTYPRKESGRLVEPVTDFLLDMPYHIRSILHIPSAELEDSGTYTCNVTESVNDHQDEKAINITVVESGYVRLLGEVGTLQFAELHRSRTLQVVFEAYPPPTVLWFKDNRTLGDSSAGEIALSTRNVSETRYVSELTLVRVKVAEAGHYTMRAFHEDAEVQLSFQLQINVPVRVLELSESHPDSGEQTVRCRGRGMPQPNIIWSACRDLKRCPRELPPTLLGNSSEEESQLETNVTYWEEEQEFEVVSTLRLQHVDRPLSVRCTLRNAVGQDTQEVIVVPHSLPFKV
Procedure: Binding of ^125I-labeled PDGFR-P1 was investigated on immobilized extracellular domain of human PDGFRβ, EGFR, and FGFR. The target proteins were incubated at a concentration of 25 nM in 96-well Maxisorp^TM plates (Nunc GmbH & Co. KG, Germany) for 24 h and the plates were washed thrice with 100 μl PBS pH 7.4. ^125I-labeled PDGFR-P1 was incubated with the target in 100 μl PBS pH 7.4 for 60 min. The unbound activity was removed by washing with 300 μl ice-cold PBS pH 7.4. Bound radioligand was determined through degradation with 100 μl NaOH 0.3 M and radioactivity measurement. Radioligand binding was calculated as percentage applied dose.

PDGFR-tr-HEK cells = assay: In vitro binding kinetics on PDGFRβ-transfected HEK293 cells; design: species or system human; conditions: kinetic studies, vs HEK293wt and CaIX-tr-HEK cells, 37°C, serum-free medium, p < 0.05
Procedure: as §1

Stability in human serum = assay type: in vitro ADME; conditions: 37°C, HPLC analysis
Procedure: The stability of PDGFR-P1 was investigated in human serum. ^125I-labeled peptide was incubated at 37°C in human serum. At time points varying from 5 min to 20 h, aliquots were taken, mixed with equal volume acetonitrile, to precipitate serum proteins and centrifuged for 5 min at 13,000 rpm. Serum degradation products were determined by HPLC analysis of the supernatant.

in vivo = assay: in vivo; design: species or system Balb/c nu/nu mice; conditions: female, Balb/c nu/nu, mouse, iv, 1 MBq, total radioactivity; for tissue to tissue ratio at 0.25 h: Tumor-to-organ ratio
Procedure: (§2) Organ distribution studies were carried out in 9-week-old female Balb/c nu/nu mice (Charles River WIGA), carrying subcutaneously transplanted human pancreatic cancer BxPC3 tumors. Tumor implantation was performed through injection of a cell suspension (4 × 10^6 cells in OPTI-MEM) (Gibco, Invitrogen Life Technologies) into the mouse trunk. After the tumors were grown to a size of approximately 1.0 cm^3, 1 MBq of ^131I-labeled PDGFR-P1 was injected into the tail vein, and at 15 min p.i. the animals were euthanized. Tumor, blood, and healthy tissues were removed, weighed, and measured with a γ-counter (LB […]; Berthold Technologies). Organ uptake calculation was performed as percentage injected dose per gram tissue (% ID/g). To avoid bias due to blood background radioactivity, uptake in blood-free organs was determined with perfusion experiments. Within these experiments, blood was removed through a catheter in the ascending aorta of the anesthesized animal and perfusion with approximately 25 ml 0.9% NaCl was performed via a cut in the animal liver. After perfusion, samples of tumor and organs were removed and measured as described. All animal experiments were carried out in conformity with the German and European laws for animal protection.

BxPC3 tumors = assay: in vivo; design: species or system Balb/c nu/nu mice; conditions: female, Balb/c nu/nu, mouse, iv, 1 MBq, 0.25 h
Procedure: as §2

human serum = conditions: 37°C, up to 20 h

Compound: CC[C@H](C)[C@H](N)C(=O)N1CCC[C@H]1C(=O)N[C@@H](CC(C)C)C(=O)N1CCC[C@H]1C(=O)N1CCC[C@H]1C(=O)N1CCC[C@H]1C(=O)N[C@@H](CO)C(=O)N[C@@H](CCCNC(=N)N)C(=O)N1CCC[C@H]1C(=O)N[C@@H](Cc1ccccc1)C(=O)N[C@@H](Cc1ccccc1)C(=O)N[C@@H](CCCCN)C(=O)N[C@@H](Cc1ccc(O)cc1)C(N)=O [PDGFR-P1] (H-IPLPPPSRPFFKY-NH2)
- IC50 (BxPC3 cells): 1400 nM
- Binding of the radioligand (percentage applied dose) [1]: about 18%

Compound: CC[C@H](C)[C@H](N)C(=O)N1CCC[C@H]1C(=O)N[C@@H](CC(C)C)C(=O)N1CCC[C@H]1C(=O)N1CCC[C@H]1C(=O)N1CCC[C@H]1C(=O)N[C@@H](CO)C(=O)N[C@@H](CCCNC(=N)N)C(=O)N1CCC[C@H]1C(=O)N[C@@H](Cc1ccccc1)C(=O)N[C@@H](Cc1ccccc1)C(=O)N[C@@H](CCCCN)C(=O)N[C@@H](Cc1ccc(O)c(I)c1)C(N)=O [^125I-labeled PDGFR-P1] (H-IPLPPPSRPFFK[Tyr(3-I)]-NH2; N-terminus assumed)
- Binding on PDGFR-tr-HEK cells compared to negative controls (PDGFR-tr-HEK cells): significantly increased binding
- Degradation product analysis (Stability in human serum): cleavage of the C-terminal tyrosine over time
- half-life (Stability in human serum; aliquots 5 min to 20 h, acetonitrile precipitation): 4 min

Compound: CC[C@H](C)[C@H](N)C(=O)N1CCC[C@H]1C(=O)N[C@@H](CC(C)C)C(=O)N1CCC[C@H]1C(=O)N1CCC[C@H]1C(=O)N1CCC[C@H]1C(=O)N[C@@H](CO)C(=O)N[C@@H](CCCNC(=N)N)C(=O)N1CCC[C@H]1C(=O)N[C@@H](Cc1ccccc1)C(=O)N[C@@H](Cc1ccccc1)C(=O)N[C@@H](CCCCN)C(=O)N[C@@H](Cc1ccc(O)c(I)c1)C(N)=O [^131I-labeled PDGFR-P1] (H-IPLPPPSRPFFK[Tyr(3-I)]-NH2; N-terminus assumed)
- tissue uptake at 0.25 h (in vivo; Activity concentration in blood): 5.4 %ID/g
- tissue uptake at 0.25 h (in vivo; Activity concentration in kidney): 10.6 %ID/g
- tissue uptake at 0.25 h (in vivo; Tumor accumulation): 3.2 %ID/g
- tissue to tissue ratio at 0.25 h (in vivo; Brain): 8.7
- tissue to tissue ratio at 0.25 h (in vivo; Intestinum): 1.43
- tissue to tissue ratio at 0.25 h (in vivo; Kidney): 0.299
- tissue to tissue ratio at 0.25 h (in vivo; Muscle): 2.15
- tissue to tissue ratio at 0.25 h (in vivo; Spleen): 1.42
- Tumor-to-organ ratio, Brain (BxPC3 tumors): 9.083
- Tumor-to-organ ratio, Intestinum (BxPC3 tumors): 1.321
- Tumor-to-organ ratio, Kidney (BxPC3 tumors): 0.379
- Tumor-to-organ ratio, Muscle (BxPC3 tumors): 2.530
- Tumor-to-organ ratio, Spleen (BxPC3 tumors): 1.601

Compound: IPLPPPSRPFFKY-NH2
- cleaved bond (human serum): K-Y
- fragment found (human serum): Y-OH
